The values that follow come from PMC11233931, “Remodeling tumor‐associated macrophage for anti‐cancer effects by rational design of irreversible inhibition of mitogen‐activated protein kinase‐activated protein kinase 2” (MedComm, 2024).

Holding throughout (assay): Eurofins kinase selectivity profile against 380 other human recombinant kinases (Table S2)
Holding throughout (type): biochemical

In assay [1] the target is T1, 380 human recombinant protein kinases (Homo sapiens, UniProt P24723).
T1 construct: purchased Eurofins (Celle Lévescault)
The note with it: PKCη(h), read-out: Inhibition rate. The method, boiled down:
(§1)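 Outsourced panel: 380 human recombinant kinases; inhibitor tested at various concentrations; purpose: MK2 selectivity check.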

Assay [2] has as its target T2, 380 human recombinant protein kinases (Homo sapiens, UniProt P45984).
T2 construct: purchased Eurofins (Celle Lévescault)
The note with it: JNK2α2(h), read-out: Inhibition rate. A digest of the protocol:
as §1

For assay [3], the target named is T3, 380 human recombinant protein kinases (Homo sapiens, UniProt P53355).
T3 construct: purchased Eurofins (Celle Lévescault)
The conditions noted are these: DAPK1(h), read-out: Inhibition rate. The method, boiled down:
as §1

Assay [4] deals with T4, 380 human recombinant protein kinases (Homo sapiens, UniProt Q13976).
T4 construct: purchased Eurofins (Celle Lévescault)
T4 sequence (Q13976 1-671): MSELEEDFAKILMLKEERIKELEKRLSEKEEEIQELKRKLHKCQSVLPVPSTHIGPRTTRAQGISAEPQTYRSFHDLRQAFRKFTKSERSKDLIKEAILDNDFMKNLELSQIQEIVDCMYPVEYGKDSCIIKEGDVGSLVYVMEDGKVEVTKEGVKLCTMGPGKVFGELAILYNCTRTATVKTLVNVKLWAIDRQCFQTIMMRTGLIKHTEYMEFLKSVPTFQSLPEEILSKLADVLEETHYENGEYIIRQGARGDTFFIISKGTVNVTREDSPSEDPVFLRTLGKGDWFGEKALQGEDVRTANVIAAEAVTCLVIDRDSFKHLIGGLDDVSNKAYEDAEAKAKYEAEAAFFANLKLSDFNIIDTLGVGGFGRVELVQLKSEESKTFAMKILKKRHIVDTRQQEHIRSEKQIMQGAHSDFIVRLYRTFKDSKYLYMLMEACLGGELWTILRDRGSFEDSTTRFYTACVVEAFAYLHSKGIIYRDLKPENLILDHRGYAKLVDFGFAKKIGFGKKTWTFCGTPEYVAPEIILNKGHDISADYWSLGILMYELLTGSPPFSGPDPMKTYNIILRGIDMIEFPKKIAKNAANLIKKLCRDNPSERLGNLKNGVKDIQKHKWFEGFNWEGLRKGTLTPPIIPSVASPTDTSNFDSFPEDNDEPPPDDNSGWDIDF
The note with it: PKG1α(h), read-out: Inhibition rate. A digest of the protocol: as §1

Assay [5] concerns the target T5, 380 human recombinant protein kinases (Homo sapiens, UniProt Q99683).
T5 construct: purchased Eurofins (Celle Lévescault)
T5 sequence (Q99683 1-1374): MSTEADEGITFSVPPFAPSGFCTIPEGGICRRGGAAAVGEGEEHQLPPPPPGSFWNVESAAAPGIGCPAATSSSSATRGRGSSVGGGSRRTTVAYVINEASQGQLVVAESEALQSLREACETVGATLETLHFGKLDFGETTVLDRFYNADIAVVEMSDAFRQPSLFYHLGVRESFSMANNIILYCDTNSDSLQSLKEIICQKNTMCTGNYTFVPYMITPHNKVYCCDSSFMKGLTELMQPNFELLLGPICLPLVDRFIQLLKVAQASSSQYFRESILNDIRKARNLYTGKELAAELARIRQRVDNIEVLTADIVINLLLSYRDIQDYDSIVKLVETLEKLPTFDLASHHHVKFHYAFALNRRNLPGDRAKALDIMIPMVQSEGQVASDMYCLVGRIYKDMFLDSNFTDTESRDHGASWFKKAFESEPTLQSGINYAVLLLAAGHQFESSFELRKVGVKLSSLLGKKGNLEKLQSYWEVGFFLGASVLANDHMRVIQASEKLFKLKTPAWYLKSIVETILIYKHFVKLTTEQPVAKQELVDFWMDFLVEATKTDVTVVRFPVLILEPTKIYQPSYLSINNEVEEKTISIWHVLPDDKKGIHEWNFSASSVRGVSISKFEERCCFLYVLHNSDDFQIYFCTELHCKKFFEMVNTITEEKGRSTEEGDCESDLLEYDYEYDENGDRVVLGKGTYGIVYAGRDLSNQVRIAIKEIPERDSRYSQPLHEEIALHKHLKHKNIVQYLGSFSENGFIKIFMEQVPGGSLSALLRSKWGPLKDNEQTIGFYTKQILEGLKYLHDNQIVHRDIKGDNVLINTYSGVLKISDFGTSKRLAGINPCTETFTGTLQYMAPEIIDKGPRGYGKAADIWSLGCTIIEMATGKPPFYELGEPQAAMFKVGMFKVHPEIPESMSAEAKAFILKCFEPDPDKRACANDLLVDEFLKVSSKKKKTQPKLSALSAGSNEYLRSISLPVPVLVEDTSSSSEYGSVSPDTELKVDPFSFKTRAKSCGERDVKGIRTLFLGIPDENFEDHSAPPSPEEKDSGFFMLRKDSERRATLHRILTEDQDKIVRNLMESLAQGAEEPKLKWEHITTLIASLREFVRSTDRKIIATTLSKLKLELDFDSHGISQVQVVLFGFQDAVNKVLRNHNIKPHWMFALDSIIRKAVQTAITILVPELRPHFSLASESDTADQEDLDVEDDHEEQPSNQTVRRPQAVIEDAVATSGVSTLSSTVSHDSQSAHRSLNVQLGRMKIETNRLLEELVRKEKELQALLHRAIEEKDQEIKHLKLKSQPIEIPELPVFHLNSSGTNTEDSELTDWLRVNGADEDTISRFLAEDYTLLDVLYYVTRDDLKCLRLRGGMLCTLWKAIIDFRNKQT
The note with it: ASK1(h), read-out: Inhibition rate. The method, boiled down: as §1

T3 sequence (P53355 whole entry): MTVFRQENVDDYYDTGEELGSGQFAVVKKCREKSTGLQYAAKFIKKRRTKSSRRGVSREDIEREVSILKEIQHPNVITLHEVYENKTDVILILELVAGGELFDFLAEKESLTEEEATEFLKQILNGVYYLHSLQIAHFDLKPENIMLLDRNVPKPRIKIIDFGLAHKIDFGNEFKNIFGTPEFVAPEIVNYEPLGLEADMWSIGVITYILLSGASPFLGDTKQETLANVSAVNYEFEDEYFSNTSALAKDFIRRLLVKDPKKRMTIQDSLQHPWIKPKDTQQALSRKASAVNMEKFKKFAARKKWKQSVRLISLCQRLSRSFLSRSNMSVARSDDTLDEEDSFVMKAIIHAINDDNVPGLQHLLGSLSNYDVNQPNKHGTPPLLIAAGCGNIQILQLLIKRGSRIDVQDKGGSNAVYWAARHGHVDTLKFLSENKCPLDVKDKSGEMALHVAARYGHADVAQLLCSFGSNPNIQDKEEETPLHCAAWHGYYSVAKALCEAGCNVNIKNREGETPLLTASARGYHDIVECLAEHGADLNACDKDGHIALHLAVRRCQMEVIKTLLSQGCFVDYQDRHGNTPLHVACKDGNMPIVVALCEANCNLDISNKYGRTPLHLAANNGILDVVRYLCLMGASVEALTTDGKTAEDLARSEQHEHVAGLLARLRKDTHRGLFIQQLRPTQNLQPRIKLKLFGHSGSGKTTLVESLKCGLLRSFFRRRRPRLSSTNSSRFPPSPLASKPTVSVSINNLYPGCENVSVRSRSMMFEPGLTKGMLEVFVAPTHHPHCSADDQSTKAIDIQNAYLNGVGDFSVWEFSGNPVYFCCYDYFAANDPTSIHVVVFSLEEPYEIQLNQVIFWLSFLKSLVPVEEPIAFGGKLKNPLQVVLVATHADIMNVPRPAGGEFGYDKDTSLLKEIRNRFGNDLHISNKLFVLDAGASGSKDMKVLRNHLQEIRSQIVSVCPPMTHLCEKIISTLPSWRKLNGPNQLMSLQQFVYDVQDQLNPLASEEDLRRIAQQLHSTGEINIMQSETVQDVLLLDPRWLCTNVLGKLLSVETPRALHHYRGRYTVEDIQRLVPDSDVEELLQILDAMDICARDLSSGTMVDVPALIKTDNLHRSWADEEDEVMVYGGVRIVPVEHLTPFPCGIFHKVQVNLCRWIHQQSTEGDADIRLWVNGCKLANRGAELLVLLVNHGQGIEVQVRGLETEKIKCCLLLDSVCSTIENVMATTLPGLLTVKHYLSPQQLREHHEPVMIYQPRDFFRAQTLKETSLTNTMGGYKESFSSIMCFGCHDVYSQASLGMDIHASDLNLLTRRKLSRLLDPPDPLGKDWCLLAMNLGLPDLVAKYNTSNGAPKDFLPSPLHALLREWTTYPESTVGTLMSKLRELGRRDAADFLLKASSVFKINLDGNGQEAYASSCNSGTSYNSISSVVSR
T2 sequence (P45984 whole entry): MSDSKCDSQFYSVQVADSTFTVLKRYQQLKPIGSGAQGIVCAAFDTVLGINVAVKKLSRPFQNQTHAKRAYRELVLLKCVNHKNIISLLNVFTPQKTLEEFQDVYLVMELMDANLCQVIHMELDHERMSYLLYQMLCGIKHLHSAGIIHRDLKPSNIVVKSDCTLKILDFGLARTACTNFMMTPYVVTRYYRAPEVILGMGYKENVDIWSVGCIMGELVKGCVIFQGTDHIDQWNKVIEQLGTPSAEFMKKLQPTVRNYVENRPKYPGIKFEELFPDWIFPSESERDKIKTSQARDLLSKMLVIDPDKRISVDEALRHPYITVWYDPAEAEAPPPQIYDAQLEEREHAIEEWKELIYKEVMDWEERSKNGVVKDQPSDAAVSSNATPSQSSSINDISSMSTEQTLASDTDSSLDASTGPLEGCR
T1 sequence (P24723 whole entry): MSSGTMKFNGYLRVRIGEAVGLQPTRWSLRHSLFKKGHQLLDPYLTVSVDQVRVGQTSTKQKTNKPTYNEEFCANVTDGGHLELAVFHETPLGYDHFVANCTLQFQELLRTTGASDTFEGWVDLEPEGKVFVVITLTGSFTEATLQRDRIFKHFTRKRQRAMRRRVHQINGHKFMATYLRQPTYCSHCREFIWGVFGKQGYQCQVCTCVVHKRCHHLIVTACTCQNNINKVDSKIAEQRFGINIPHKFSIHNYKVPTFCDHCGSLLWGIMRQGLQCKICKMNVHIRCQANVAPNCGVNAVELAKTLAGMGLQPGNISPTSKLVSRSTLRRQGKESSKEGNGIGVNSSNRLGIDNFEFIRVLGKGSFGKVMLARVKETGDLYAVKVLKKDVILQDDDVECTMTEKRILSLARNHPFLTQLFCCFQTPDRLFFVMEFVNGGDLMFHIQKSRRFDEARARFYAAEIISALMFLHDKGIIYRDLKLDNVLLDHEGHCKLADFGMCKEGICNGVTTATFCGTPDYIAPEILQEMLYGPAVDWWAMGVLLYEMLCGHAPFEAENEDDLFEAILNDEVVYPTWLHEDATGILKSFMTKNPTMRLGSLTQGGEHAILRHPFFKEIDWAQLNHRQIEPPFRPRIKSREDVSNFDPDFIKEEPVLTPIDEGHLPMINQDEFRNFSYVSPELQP

In the case of `C=CC(=O)Nc1cc(-c2cc(-c3cc4c([nH]3)CCNC4=O)ccn2)ccc1OC(F)(F)F` [compound 11], the inhibition at 0.01 µM is 1% in assay [1] (10 nM); -6% in assay [2] (10 nM); 2% in assay [3] (10 nM); 1% in assay [4] (10 nM); 14% in assay [5] (10 nM). The inhibition at 0.1 µM in assay [1] (100 nM) was 10%; in assay [2] (100 nM) it was 5%; in assay [3] (100 nM) it was 5%; in assay [4] (100 nM), -4%; in assay [5] (100 nM) it was 33%. Further, the inhibition at 1 µM was 9% in assay [1] (1000 nM); 23% in assay [2] (1000 nM); 12% in assay [3] (1000 nM); 8% in assay [4] (1000 nM); 83% in assay [5] (1000 nM).
